{"source": "patent US20080027131A1", "about": "“USE OF BENZO-FUSED HETEROCYCLE SULFAMIDE DERIVATIVES FOR THE TREATMENT OF OBESITY” (priority 2005, published 2008)", "key": {"[1]": {"test_system": "AKR/J Obese Mice", "test": "AKR/J Obese Mice In Vivo Assay (Example 13)", "protocol": "AKR/J mice are known in the art to be susceptible to diet-induced obesity. (Rossmeisl M, Rim J S, Koza R A, Kozak L P. Diabetes. 2003 August; 52(8):1958-66.)\nMale AKR/J mice (˜20 gram) at 4-5 weeks of age (Jackson Laboratories, Bar Harbor, Me.) were housed individually in a shoe-box cage at 21° C. with a 12-h light-dark cycle. The mice were fed with a high fat diet for 8 weeks to induce obesity. The composition of the diet by energy was 45% energy as fat, 20% as protein, and 35% as carbohydrate (Research Diets, D12451, New Brunswick, N.J.).\nObese mice with body weights between 35 and 46 grams were selected for the studies. Mice were randomized according to body weight into treatment groups at 13 weeks of age. The mice were orally gavaged once daily (0.2 ml at 1500-1700 hour) with vehicle control (0.5% methylcellulose, pH7.4) or vehicle containing Compound #8 (300 mg/kg). The body weights and food intake of the mice were monitored every few days. On day 11, the mice were anaesthetized with sodium pentobarbital (1 ml/kg, i.p, Sleepaway, Fort Dodge, Iowa). White adipose tissue (WAT) (retroperitoneal fat) and skeletal muscle (gastrocnemius and soleus muscle) were dissected and weighed.\nData shown below are expressed as mean and standard error calculated using 9-10 mice per treatment group. The 2 tailed Student's t-Tests were used for statistic analysis. All animal studies complied with the guideline of the Institutional Animal Care and Use Committee."}, "[2]": {"test_system": "AKR/J mice", "test": "Obesity In Vivo Assays in diet-induced obese AKR/J mice (Example 14, first study and second dose response study)", "settings": "for Intake of high fat diet (g) Day 0-3 / Intake of high fat diet (g) Day 4-7 / Weight loss (g) Day 4 / Weight loss (g) Day 8 / Weight loss (g) Day 10 / Brown Adipose Tissue / Epididymal fat / Muscle / Retroperitoneal fat / Total intake of high fat diet (g) Day 1-10 / Weight loss (g) Day 7: mean ± SE; for Ratio (fat/muscle): total weights of inguinal fat and retroperitoneal fat/muscle weight", "text": "Compound #8 was suspended in 0.5% Methocel using a hand held homogenizer to reduce the particle size and a magnetic stir bar and stir plate to keep the particles homogeneously suspended throughout the dosing period. 0.5% Hydroxypropyl Methylcellulose (Methocel) used as vehicle/control.\nMale AKR/J mice weighing between 35 to 46 grams were used for weight loss studies. AKR/J mice are susceptible to diet-induced obesity. Male AKR/J mice (average body weight of about 20 grams) at 4 to 5 weeks of age (obtained from Jackson Laboratories, Bar Harbor, Me.) were group housed, five per cage, in a shoebox cage at 21° C. with a 12 h light dark cycle. All of the mice were quarantined for a period of one week before transfer to the animal procedure room. The mice were fed a high fat diet for 8 weeks to induce obesity. The composition of the diet by energy was 45% energy as fat, 20% as protein, and 35% as carbohydrate (obtained from Research Diets, D12451, New Brunswick, N.J.). As a non-obese control, an additional group of mice that were age- and weight-matched was fed with a low fat diet (obtained from Research Diets, D12450B, New Brunswick, N.J.). Only mice that developed obesity, defined as a body weight between 35 and 46 grams, were selected for the weight loss studies. Animals were separated and single housed at least three days prior to the drug treatments to allow acclimation to the new surroundings.\nThe assay comprised two separate studies: In the first study, 10 mice were given vehicle control of 0.5% Methocel; 10 mice were treated with 300 mg/kg Compound #8 in vehicle; and 10 mice were dosed as positive control with 10 mg/kg sibutramine (a weight loss agent) in vehicle. In the second study, 48 mice were allocated into 4 treatment groups of 12 mice each. The four groups were then treated with 0.5% Methocel (vehicle), 10 mg/kg Compound #8, 30 mg/kg Compound #8, and 100 mg/kg Compound #8 in vehicle, respectively.\nThe mice were orally gavaged once daily (at 1500-1700 hour) with vehicle control (0.5% methocel, pH7.4) or vehicle containing Compound #8 for 10 days. The dosing volume was 5 mL/kg body weight (0.2 mL for 40 gram mice). Body weight and food intake of mice were monitored periodically throughout the studies. On Day 11, the mice were fasted for 4 hr during light cycle (food was removed 0600-1000 hour). A necropsy was done 18 hours after last dosing. The mice were anaesthetized with sodium pentobarbital (1 ml/kg, intraperitoneal [i.p.] injection, SleepAway, Fort Dodge, Iowa) and blood was drawn via cardiac puncture using an 1 mL syringe and collected into heparinized tubes. […] Plasma samples were obtained by centrifuging whole blood at 2000˜3000 g for 10˜20 minutes at 4° C. and stored at −20° C. for further measurement of insulin, HDL, LDL, and total cholesterol and triglyceride.\nBlood glucose levels were measured with a glucometer (OneTouch UltraSmart, Lifescan, Milpitas, Calif.) after collecting two microliters of blood through tail puncture. Plasma insulin concentrations were measured by using rat/mouse insulin enzyme-linked immunosorbent assay (ELISA) kit (EZRMI-13K, LINCO Research, St. Charles, Mo.). Blood samples were diluted 1:4 in charcoal stripped mouse serum that was included in the ELISA kit. The rest of the procedure followed the manufacturers instruction. The total fluorescence was detected using an Orion 1 Microplate Luminometer (Berthold Detection Systems, Pforzheim, Germany). Plasma total cholesterol, high density lipoprotein (HDL), low density lipoprotein (LDL) and triglyceride concentrations were measured by using a Bayer ADVIA 1650 blood chemistry analyzer (Bayer HealthCare LLC, Diagnostic Division, Tarrytown, N.Y.). […]"}, "[3]": {"settings": "300 mg/kg oral, 10-day treatment"}, "[4]": {"settings": "first study, 300 mg/kg oral gavage once daily"}, "[5]": {"settings": "first study, 300 mg/kg, after 10 days of dosing"}, "[6]": {"settings": "second study, 10 mg/kg oral once daily"}, "[7]": {"settings": "second study, 30 mg/kg oral once daily"}, "[8]": {"settings": "second study, 100 mg/kg oral once daily"}, "[9]": {"settings": "first study, 10 mg/kg, after 10 days of dosing"}, "[10]": {"settings": "first study, positive control 10 mg/kg"}}}
{"smiles": "NS(=O)(=O)NCC1CCc2ccccc2O1", "note": "(stereo not shown)", "values": [{"measurement": "melting point", "value": "100 to 101", "unit": "°C"}]}
{"smiles": "NS(=O)(=O)NC[C@H]1COc2cc(Cl)ccc2O1", "note": "[Compound #8, (2S)-(−)-N-(6-Chloro-2,3-dihydro-benzo[1,4]dioxin-2-ylmethyl)-sulfamide]", "values": [{"measurement": "Weight Loss", "setting": "[1]; 300 mg/kg oral gavage once daily, 10-day treatment, mean ± standard error, 9-10 mice", "value": "-3.3 ± 0.34", "unit": "g"}, {"measurement": "Food Intake (g) Day 4-10", "setting": "[1]; 300 mg/kg oral gavage once daily, Day 4-10, mean ± standard error", "value": "16.2 ± 0.68", "unit": "g"}, {"measurement": "Retroperitoneal Fat Weight", "setting": "[1]; 300 mg/kg oral gavage once daily, dissected day 11, mean ± standard error", "value": "0.47 ± 0.04", "unit": "g"}, {"measurement": "Skeletal Muscle Weight", "setting": "[1]; 300 mg/kg oral gavage once daily, gastrocnemius and soleus, day 11, mean ± standard error", "value": "0.30 ± 0.01", "unit": "g"}, {"measurement": "changes in skeletal muscle mass (in words)", "setting": "[1]; [3]", "value": "no significant changes"}, {"measurement": "decrease of fat to lean mass ratio (white adipose tissue/skeletal muscle) compared to vehicle treated mice", "setting": "[1]; [3]", "value": 16.8, "unit": "%"}, {"measurement": "reduction of retroperitoneal fat relative to vehicle treated mice", "setting": "[1]; [3]", "value": 26.6, "unit": "%"}, {"measurement": "fat to lean mass ratio (white adipose tissue/skeletal muscle)", "setting": "[1]; 300 mg/kg oral, 10-day treatment, vehicle 8.9±0.4, p<0.05", "value": "7.4±0.5"}, {"measurement": "weight loss compared to vehicle treated mice (in words)", "setting": "[1]; 300 mg/kg oral, after 10-day treatment", "value": "greater weight loss"}, {"measurement": "food intake relative to control animals (in words)", "setting": "[1]; 300 mg/kg oral, day 4 to day 10", "value": "reduction of food intake"}, {"measurement": "gastric emptying", "setting": "[1]; 300 mg/kg oral, p<0.05", "value": "delay gastric emptying at a statistically significant level"}, {"measurement": "Intake of high fat diet (g) Day 0-3", "setting": "[2]; [4]", "value": "10.0 ± 0.4", "unit": "g"}, {"measurement": "Intake of high fat diet (g) Day 4-7", "setting": "[2]; [4]", "value": "10.6 ± 0.4", "unit": "g"}, {"measurement": "Weight loss (g) Day 4", "setting": "[2]; [4]", "value": "-0.3 ± 0.3", "unit": "g"}, {"measurement": "Weight loss (g) Day 8", "setting": "[2]; [4]", "value": "-2.5 ± 0.3", "unit": "g"}, {"measurement": "Weight loss (g) Day 10", "setting": "[2]; [4]", "value": "-3.3 ± 0.3", "unit": "g"}, {"measurement": "weight loss compared with vehicle treated mice (in words)", "setting": "[2]; [5]", "value": "significant weight loss"}, {"measurement": "white adipose tissue weight compared with vehicle treatment (in words)", "setting": "[2]; [5]", "value": "reduced white adipose tissue weight"}, {"measurement": "Brown Adipose Tissue", "setting": "[2]; [5]", "value": "0.22 ± 0.09", "unit": "g"}, {"measurement": "Epididymal fat", "setting": "[2]; [5]", "value": "1.73 ± 0.10", "unit": "g"}, {"measurement": "Muscle", "setting": "[2]; [5]", "value": "0.30 ± 0.01", "unit": "g"}, {"measurement": "Retroperitoneal fat", "setting": "[2]; [5]", "value": "0.47 ± 0.04", "unit": "g"}, {"measurement": "food intake compared to vehicle (in words)", "setting": "[2]; first study, 300 mg/kg, three days after treatment", "value": "Significant suppression of food intake"}, {"measurement": "Ratio (fat/muscle)", "setting": "[2]; first study, 300 mg/kg", "value": "7.42 ± 0.54"}, {"measurement": "Total stomach content, measured at the end of the study", "setting": "[2]; first study, 300 mg/kg, vehicle 0.16±0.02 g, p<0.05", "value": "0.27 ± 0.05", "unit": "g"}, {"measurement": "weight loss or food intake suppression (in words)", "setting": "[2]; second dose response study, 10, 30, and 100 mg/kg", "value": "no significant (P>0.05) weight loss or food intake suppression"}, {"measurement": "Total intake of high fat diet (g) Day 1-10", "setting": "[2]; [6]", "value": "28 ± 0.5", "unit": "g"}, {"measurement": "Weight loss (g) Day 4", "setting": "[2]; [6]", "value": "0.1 ± 0.1", "unit": "g"}, {"measurement": "Weight loss (g) Day 7", "setting": "[2]; [6]", "value": "0.2 ± 0.2", "unit": "g"}, {"measurement": "Weight loss (g) Day 10", "setting": "[2]; [6]", "value": "0.3 ± 0.3", "unit": "g"}, {"measurement": "Total intake of high fat diet (g) Day 1-10", "setting": "[2]; [7]", "value": "28 ± 0.5", "unit": "g"}, {"measurement": "Weight loss (g) Day 4", "setting": "[2]; [7]", "value": "0.1 ± 0.1", "unit": "g"}, {"measurement": "Weight loss (g) Day 7", "setting": "[2]; [7]", "value": "0.0 ± 0.2", "unit": "g"}, {"measurement": "Weight loss (g) Day 10", "setting": "[2]; [7]", "value": "-0.4 ± 0.2", "unit": "g"}, {"measurement": "Total intake of high fat diet (g) Day 1-10", "setting": "[2]; [8]", "value": "28 ± 0.6", "unit": "g"}, {"measurement": "Weight loss (g) Day 4", "setting": "[2]; [8]", "value": "0.2 ± 0.1", "unit": "g"}, {"measurement": "Weight loss (g) Day 7", "setting": "[2]; [8]", "value": "0.2 ± 0.3", "unit": "g"}, {"measurement": "Weight loss (g) Day 10", "setting": "[2]; [8]", "value": "0.1 ± 0.2", "unit": "g"}]}
{"smiles": "CC(C)CC(N(C)C)C1(c2ccc(Cl)cc2)CCC1", "note": "(stereo not shown) [Sibutramine, sibutramine, reference compound]", "values": [{"measurement": "food intake from day 0 to Day 3 (in words)", "setting": "[2]; first study, 10 mg/kg", "value": "reduction of food intake"}, {"measurement": "weight after 3 days treatment (in words)", "setting": "[2]; first study, 10 mg/kg", "value": "lost weight"}, {"measurement": "weight at the end of the study compared to control mice (in words)", "setting": "[2]; first study, 10 mg/kg", "value": "no difference in weight"}, {"measurement": "Brown Adipose Tissue", "setting": "[2]; [9]", "value": "0.14 ± 0.01", "unit": "g"}, {"measurement": "Epididymal fat", "setting": "[2]; [9]", "value": "1.76 ± 0.11", "unit": "g"}, {"measurement": "Muscle", "setting": "[2]; [9]", "value": "0.31 ± 0.01", "unit": "g"}, {"measurement": "Retroperitoneal fat", "setting": "[2]; [9]", "value": "0.61 ± 0.07", "unit": "g"}, {"measurement": "Ratio (fat/muscle)", "setting": "[2]; first study, 10 mg/kg", "value": "7.67 ± 0.59"}, {"measurement": "Intake of high fat diet (g) Day 0-3", "setting": "[2]; [10]", "value": "6.5 ± 0.3", "unit": "g"}, {"measurement": "Intake of high fat diet (g) Day 4-7", "setting": "[2]; [10]", "value": "14.4 ± 0.7", "unit": "g"}, {"measurement": "Weight loss (g) Day 4", "setting": "[2]; [10]", "value": "-2.0 ± 0.2", "unit": "g"}, {"measurement": "Weight loss (g) Day 8", "setting": "[2]; [10]", "value": "-1.2 ± 0.4", "unit": "g"}, {"measurement": "Weight loss (g) Day 10", "setting": "[2]; [10]", "value": "-1.2 ± 0.5", "unit": "g"}]}
